Experimental findings from US20110105397A1, “METHOD FOR TREATING HEART FAILURE WITH STRESSCOPIN-LIKE PEPTIDES” (priority 2009, published 2011) are described below.

Where “and” joins values, the source holds several entries; their conditions need not be identical. Equal entries are not always repeated. Where two headings read alike, the source gives them in different places. Where a SMILES comes first, the peptide text is derived from it. Where no end group is shown, it is not given here. The star is where a group is joined. Succinimide(1-Et,3-yl) = CCN1C(=O)CC(*)C1=O

This experiment deals with T1, human CRHR2 (Homo sapiens, UniProt Q13324).
T1 construct: expressed in transfected cells
T1 sequence (Q13324 1-411): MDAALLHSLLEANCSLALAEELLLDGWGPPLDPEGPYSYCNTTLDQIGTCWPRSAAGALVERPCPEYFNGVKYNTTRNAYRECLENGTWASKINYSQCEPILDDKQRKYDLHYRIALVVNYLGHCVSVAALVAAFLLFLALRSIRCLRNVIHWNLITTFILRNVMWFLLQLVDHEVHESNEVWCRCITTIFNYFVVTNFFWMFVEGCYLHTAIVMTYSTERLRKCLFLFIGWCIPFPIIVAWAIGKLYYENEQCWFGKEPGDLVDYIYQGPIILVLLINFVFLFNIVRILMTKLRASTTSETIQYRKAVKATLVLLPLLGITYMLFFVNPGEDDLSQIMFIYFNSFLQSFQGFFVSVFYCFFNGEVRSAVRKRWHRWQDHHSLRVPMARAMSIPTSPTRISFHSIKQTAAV
In words: cAMP assay, h-CRHR2 transfected SK-N-MC cells. Format: cell-based. Conditions: for EC50: read-out: pA50 (converted); for Log DR [M]: h-SCP control pA50 minus test compound pA50 within the same assay batch; for αmax: normalized to the maximum response to h-SCP. Put shortly:
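Intracellular cAMP was quantified by radioligand competition against a cAMP standard curve after HCl lysis of h-CRHR2-transfected SK-N-MC cells. These cells had been exposed to peptides from 1 pM to 1 μM for 1 h at 37 °C with IBMX. Responses were scaled to the daily h-SCP maximum and fitted to the Hill equation to give A50/pA50.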
(Cyclic AMP is a second messenger, typically raised through Gs and lowered through Gi signalling.)

The mark [1] stands for this setting: Table 13, cysteine mutation, N-ethylmaleimide capping, pegylation.
The mark [2] stands for this setting: Table 12, amidation and N-terminal deletions, normalized to maximum response to h-SCP, 3-5 replicate experiments.

Consider `CC[C@H](C)[C@H](NC(=O)[C@H](CCC(N)=O)NC(=O)[C@H](C)NC(=O)[C@H](CCSC)NC(=O)[C@H](CC(C)C)NC(=O)[C@H](Cc1c[nH]cn1)NC(=O)[C@H](C)NC(=O)[C@H](CC(N)=O)NC(=O)[C@H](C)NC(=O)[C@H](C)NC(=O)[C@H](C)NC(=O)[C@H](CCC(N)=O)NC(=O)[C@H](C)NC(=O)[C@H](CCCNC(=N)N)NC(=O)[C@H](CC(C)C)NC(=O)[C@H](CSC1CC(=O)N(CC)C1=O)NC(=O)[C@H](CCCCN)NC(=O)[C@H](C)NC(=O)[C@H](CCCCN)NC(=O)[C@H](C)NC(=O)[C@@H](NC(=O)[C@H](CC(N)=O)NC(=O)[C@H](Cc1ccccc1)NC(=O)[C@H](CC(C)C)NC(=O)[C@H](CC(C)C)NC(=O)[C@H](CC(N)=O)NC(=O)[C@H](CCSC)NC(=O)[C@@H](NC(=O)[C@H](CC(N)=O)NC(=O)[C@@H](NC(=O)[C@@H]1CCCN1C(=O)[C@@H](NC(=O)[C@H](CC(=O)O)NC(=O)[C@H](CC(C)C)NC(=O)[C@H](CO)NC(=O)[C@H](CC(C)C)NC(=O)[C@@H](NC(=O)[C@H](Cc1ccccc1)NC(=O)[C@H](CCCCN)NC(=O)[C@@H](N)[C@@H](C)O)[C@@H](C)O)C(C)C)[C@@H](C)O)[C@@H](C)CC)[C@@H](C)CC)C(N)=O` (stereo partly drawn) [SEQ ID NO: 49, TKFTLSLDVPTNIMNLLFNIAKAKC(-NES) LRAQA AANAH LMAQI-NH2] (H-TKFTLSLDVPTNIMNLLFNIAKAKC(Succinimide(1-Et,3-yl))LRAQAAANAHLMAQI-NH2; N-terminus assumed), for which the EC50 under setting [1] is 0.437 nM. Moreover, the “Log DR [M]” value (Table 13) came out at 0.11.
For “H-TKFTLSLDVPTNIMNLLFNIAKAKNLRAQAAANCHLMAQI-NH2 [SEQ ID NO: 35, TKFTLSLDVPTNIMNLLFNIAKAKNLRAQAAANCHLMAQI-NH2]”, under setting [1], the EC50 is 1.17 nM. In addition, the “Log DR [M]” value (Table 13) was 0.70.
The like results for `CC[C@H](C)[C@H](NC(=O)[C@H](CCC(N)=O)NC(=O)[C@H](C)NC(=O)[C@H](CCSC)NC(=O)[C@H](CC(C)C)NC(=O)[C@H](Cc1c[nH]cn1)NC(=O)[C@H](C)NC(=O)[C@H](CC(N)=O)NC(=O)[C@H](C)NC(=O)[C@H](CSC1CC(=O)N(CC)C1=O)NC(=O)[C@H](C)NC(=O)[C@H](CCC(N)=O)NC(=O)[C@H](C)NC(=O)[C@H](CCCNC(=N)N)NC(=O)[C@H](CC(C)C)NC(=O)[C@H](CC(N)=O)NC(=O)[C@H](CCCCN)NC(=O)[C@H](C)NC(=O)[C@H](CCCCN)NC(=O)[C@H](C)NC(=O)[C@@H](NC(=O)[C@H](CC(N)=O)NC(=O)[C@H](Cc1ccccc1)NC(=O)[C@H](CC(C)C)NC(=O)[C@H](CC(C)C)NC(=O)[C@H](CC(N)=O)NC(=O)[C@H](CCSC)NC(=O)[C@@H](NC(=O)[C@H](CC(N)=O)NC(=O)[C@@H](NC(=O)[C@@H]1CCCN1C(=O)[C@@H](NC(=O)[C@H](CC(=O)O)NC(=O)[C@H](CC(C)C)NC(=O)[C@H](CO)NC(=O)[C@H](CC(C)C)NC(=O)[C@@H](NC(=O)[C@H](Cc1ccccc1)NC(=O)[C@H](CCCCN)NC(=O)[C@@H](N)[C@@H](C)O)[C@@H](C)O)C(C)C)[C@@H](C)O)[C@@H](C)CC)[C@@H](C)CC)C(N)=O` (stereo partly drawn) [SEQ ID NO: 46, TKFTLSLDVPTNIMNLLFNIAKAKNLRAQAC(-NES)ANAH LMAQI-NH2] (H-TKFTLSLDVPTNIMNLLFNIAKAKNLRAQAC(Succinimide(1-Et,3-yl))ANAHLMAQI-NH2; N-terminus assumed) were, in that order, 0.372 nM and 0.04.
Regarding “TKFTLSLDVPTNIMNLLFNCAKAKNLRAQAAANAHLMAQI-NH2 [SEQ ID NO: 21, TKFTLSLDVPTNIMNLLFNCAKAKNLRAQAAANAHLMAQI-NH2]”, the EC50 under setting [1] is 1.78 nM. Besides, the “Log DR [M]” value (Table 13) stood at 0.77.
Under “Table 12”, “KFTLSLDVPTNIMNLLFNIAKAKNLRAQAAANAHLMAQI-NH2 [SEQ ID NO: 107, KFTLSLDVPTNIMNLLFNIAKAKNLRAQAAANAHLMAQI-NH2]” showed a nH of 1.07 and a αmax of 111.3. Besides, the EC50 under setting [2] is 0.575 nM and 0.562 nM.
With “TKFTLSLDVPTNIMNLLFNIAKAKNLRAQCAANAHLMAQI-NH2 [SEQ ID NO: 31, TKFTLSLDVPTNIMNLLFNIAKAKNLRAQCAANAHLMAQI-NH2]”, the EC50 under setting [1] was 9.55 nM. The “Log DR [M]” value (Table 13) is recorded as 1.61.
Turning to `CC[C@H](C)[C@H](NC(=O)[C@H](CC(N)=O)NC(=O)[C@H](Cc1ccccc1)NC(=O)[C@H](CC(C)C)NC(=O)[C@H](CC(C)C)NC(=O)[C@H](CC(N)=O)NC(=O)[C@H](CCSC)NC(=O)[C@@H](NC(=O)[C@H](CC(N)=O)NC(=O)[C@@H](NC(=O)[C@@H]1CCCN1C(=O)[C@@H](NC(=O)[C@H](CC(=O)O)NC(=O)[C@H](CC(C)C)NC(=O)[C@H](CO)NC(=O)[C@H](CC(C)C)NC(=O)[C@@H](NC(=O)[C@H](Cc1ccccc1)NC(=O)[C@H](CCCCN)NC(=O)[C@@H](N)[C@@H](C)O)[C@@H](C)O)C(C)C)[C@@H](C)O)[C@@H](C)CC)C(=O)N[C@@H](C)C(=O)N[C@@H](CCCCN)C(=O)N[C@@H](C)C(=O)N[C@@H](CCCCN)C(=O)N[C@@H](CC(N)=O)C(=O)N[C@@H](CC(C)C)C(=O)N[C@@H](CCCNC(=N)N)C(=O)N[C@@H](C)C(=O)N[C@@H](CCC(N)=O)C(=O)N[C@@H](C)C(=O)N[C@@H](C)C(=O)N[C@@H](C)C(=O)N[C@@H](CC(N)=O)C(=O)N[C@@H](C)C(=O)N[C@@H](Cc1c[nH]cn1)C(=O)N[C@@H](CC(C)C)C(=O)N[C@@H](CCSC)C(=O)N[C@@H](C)C(=O)N[C@@H](CCC(N)=O)C(=O)N[C@@H](CSC1CC(=O)N(CC)C1=O)C(N)=O` (stereo partly drawn) [SEQ ID NO: 42, TKFTLSLDVPTNIMNLLFNIAKAKNLRAQAAANAHLMAQC(-NES)-NH2] (H-TKFTLSLDVPTNIMNLLFNIAKAKNLRAQAAANAHLMAQC(Succinimide(1-Et,3-yl))-NH2; N-terminus assumed), the EC50 under setting [1] is roughly 17.8 nM. In addition, for the setting “Table 13”, the “Log DR [M]” value is roughly 1.72.
Regarding “TKFTLSLDVPTNIMNLLFNIACAKNLRAQAAANAHLMAQI-NH2 [SEQ ID NO: 23, TKFTLSLDVPTNIMNLLFNIACAKNLRAQAAANAHLMAQI-NH2]”, under setting [1], the EC50 is 2.82 nM. Besides, the “Log DR [M]” value (Table 13) is recorded as 1.13.
For “H-TKFTLSLDVPTNIMNLLFNIAKAKNLRCQAAANAHLMAQI-NH2 [SEQ ID NO: 29, TKFTLSLDVPTNIMNLLFNIAKAKNLRCQAAANAHLMAQI-NH2]”, the EC50 under setting [1] is 0.339 nM. Further, the “Log DR [M]” value (Table 13) is given as 0.00.
With “TKFTLSLDCPTNIMNLLFNIAKAKNLRAQAAANAHLMAQI-NH2 [SEQ ID NO: 10, TKFTLSLDCPTNIMNLLFNIAKAKNLRAQAAANAHLMAQI-NH2]”, the EC50 under setting [1] is 5.25 nM. Under “Table 13”, the “Log DR [M]” value worked out at 1.30.
The like results for “H-TKFTLSLDVPTNCMNLLFNIAKAKNLRAQAAANAHLMAQI-NH2 [SEQ ID NO: 14, TKFTLSLDVPTNCMNLLFNIAKAKNLRAQAAANAHLMAQI-NH2]” were, in that order, roughly 45.7 nM and greater than 2.
The like results for “H-TKFTLSLDVPTNIMCLLFNIAKAKNLRAQAAANAHLMAQI-NH2 [SEQ ID NO: 16, TKFTLSLDVPTNIMCLLFNIAKAKNLRAQAAANAHLMAQI-NH2]” were, in that order, 1.17 nM and 0.76.
For “TKFTLSLDVPTNIMNLLFNIAKAKNLRAQAAANAHLMAQI-OH [SEQ ID NO: 113, TKFTLSLDVPTNIMNLLFNIAKAKNLRAQAAANAHLMAQI]”, the “fold less potent than the amidated parent peptide” value is “approximately 200 fold”. Where the note is “Table 12”, this molecule showed a nH of 1.07 and a αmax of 107.4. Under setting [2], the EC50 was 79.4 nM.
As for `CC[C@H](C)[C@H](NC(=O)[C@H](CCC(N)=O)NC(=O)[C@H](C)NC(=O)[C@H](CCSC)NC(=O)[C@H](CC(C)C)NC(=O)[C@H](Cc1c[nH]cn1)NC(=O)[C@H](C)NC(=O)[C@H](CC(N)=O)NC(=O)[C@H](C)NC(=O)[C@H](C)NC(=O)[C@H](C)NC(=O)[C@H](CCC(N)=O)NC(=O)[C@H](C)NC(=O)[C@H](CCCNC(=N)N)NC(=O)[C@H](CC(C)C)NC(=O)[C@H](CC(N)=O)NC(=O)[C@H](CCCCN)NC(=O)[C@H](C)NC(=O)[C@H](CCCCN)NC(=O)[C@H](C)NC(=O)[C@H](CSC1CC(=O)N(CC)C1=O)NC(=O)[C@H](CC(N)=O)NC(=O)[C@H](Cc1ccccc1)NC(=O)[C@H](CC(C)C)NC(=O)[C@H](CC(C)C)NC(=O)[C@H](CC(N)=O)NC(=O)[C@H](CCSC)NC(=O)[C@@H](NC(=O)[C@H](CC(N)=O)NC(=O)[C@@H](NC(=O)[C@@H]1CCCN1C(=O)[C@@H](NC(=O)[C@H](CC(=O)O)NC(=O)[C@H](CC(C)C)NC(=O)[C@H](CO)NC(=O)[C@H](CC(C)C)NC(=O)[C@@H](NC(=O)[C@H](Cc1ccccc1)NC(=O)[C@H](CCCCN)NC(=O)[C@@H](N)[C@@H](C)O)[C@@H](C)O)C(C)C)[C@@H](C)O)[C@@H](C)CC)C(N)=O` (stereo partly drawn) [SEQ ID NO: 51, TKFTL SLDVP TNIMN LLFNC(-NES) AKAKN LRAQA AANAH LMAQI-NH2] (H-TKFTLSLDVPTNIMNLLFNC(Succinimide(1-Et,3-yl))AKAKNLRAQAAANAHLMAQI-NH2; N-terminus assumed), under setting [1], the EC50 is 1.62 nM. Besides, the “Log DR [M]” value (Table 13) was found to be 0.68.
The matching figures for “TKFTLSLDVPCNIMNLLFNIAKAKNLRAQAAANAHLMAQI-NH2 [SEQ ID NO: 12, TKFTLSLDVPCNIMNLLFNIAKAKNLRAQAAANAHLMAQI-NH2]”: 13.8 nM and 1.72.
